Measurements taken from US20250129103A1, “METHODS FOR TREATMENT OF CANCER” (Frontier Medicines Corporation, priority 2022, published 2025).

These compounds were tested against KRAS G12C (GMPPNP-loaded) and cRAF (Ras-binding domain) interaction (Homo sapiens (Human), UniProt P01116, C118S/C51S/C80L/G12C) (assay: Inhibition of KRAS G12C and cRAF binding (AlphaScreen)). Details: KRAS G12C loaded with GMPPNP, cRaf RBD, 2 hours preincubation; read-out: Raf-1 RBD K-Ras IC50.
Description: Compounds were diluted in 100% DMSO and each compound concentration was spotted at 200 nl/well onto low volume, white 384 well plates. […] KRAS G12C was preloaded with the GTP analogue Guanosine 5′-[β,γ-imido]triphosphate (GMPPNP). The KRAS G12C was diluted in 25 mM Hepes, pH 7.4, 150 mM NaCl, 5 mM MgCl2, 0.01% TritonX-100 and 10 μM GMPPNP and added at 10 ul/well to compound-spotted plates resulting in a DMSO concentration of 2%. Plates were incubated for 2 hours. A mixture of RBD and the AlphaScreen streptavidin donor and glutathione acceptor beads diluted in 25 mM Hepes, pH 7.4, 150 mM NaCl, 5 mM MgCl2, 0.01% TritonX-100 and 2% DMSO was then added at 10 ul/well and incubated for 60-90 minutes before the samples were read for emission at 570 nm after excitation of the donor beads at 680 nm. All incubations were performed at room temperature. The final top compound concentration was 50 μM with 1:3 titrations for 10-point dose response curves. […] IC50S were determined using nonlinear regression fit of [inhibitor] vs. response (4 parameters). […]

Chain of KRAS G12C (GMPPNP-loaded) and cRAF (Ras-binding domain) interaction (P01116 other isoform, or with tags, fused parts or gaps G12C/C51S/C80L/C118S): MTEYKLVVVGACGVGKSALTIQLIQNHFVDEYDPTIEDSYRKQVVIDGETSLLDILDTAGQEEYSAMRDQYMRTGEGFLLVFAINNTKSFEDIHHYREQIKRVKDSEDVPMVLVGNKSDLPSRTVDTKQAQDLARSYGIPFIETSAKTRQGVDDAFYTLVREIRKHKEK

SMILES | IC50 [nM]
Cc1nccc(/C=C/C(=O)N2CCN(c3nc(OCC45CCCN4CCC5)nc4c3CCN(c3cccc5ccc(F)c(Cl)c35)C4)C[C@@H]2CC#N)n1 [Compound 206] | 100 to 500
Cc1cc(/C=C/C(=O)N2CCN(c3nc(OC[C@@]45CCCN4C[C@H](F)C5)nc4c(F)c(-c5cccc6ccccc56)ncc34)C[C@@H]2CC#N)nc(C)n1 [Compound 209] | 100 to 500
Cc1nccc(/C=C/C(=O)N2CCN(c3nc(OC[C@@]45CCCN4C[C@H](F)C5)nc4c(F)c(-c5cccc6ccccc56)ncc34)C[C@@H]2CC#N)n1 [Compound 210] | 100 to 500
Cc1nccc(/C=C/C(=O)N2CCN(c3nc(OC[C@@]45CCCN4C[C@H](F)C5)nc4c(F)c(-c5c(C)cc(F)c6[nH]ncc56)ncc34)C[C@@H]2CC#N)n1 [Compound 212] | 100 to 500
N#CC[C@H]1CN(c2nc(OC[C@@]34CCCN3C[C@H](F)C4)nc3c(F)c(-c4cccc5ccc(F)c(Cl)c45)ncc23)CCN1C(=O)/C=C/CN1CCS(=O)(=O)CC1 [Compound 213] | 100 to 500
CO[C@@H]1CCN(C/C=C/C(=O)N2CCN(c3nc(OC[C@@]45CCCN4C[C@H](F)C5)nc4c(F)c(-c5cccc6cccc(F)c56)ncc34)C[C@@H]2CC#N)C1 [Compound 221] | < 10
Cc1nccc(/C=C/C(=O)N2CCN(c3nc(OC[C@@]45CCCN4C[C@H](F)C5)nc4c(F)c(-c5n[nH]c6cccc(Cl)c56)ncc34)C[C@@H]2CC#N)n1 [Compound 230] | > 500
N#CC[C@H]1CN(c2nc(OC[C@@]34CCCN3C[C@H](F)C4)nc3c(F)c(-c4cccc5ccc(F)c(Cl)c45)ncc23)CCN1C(=O)/C=C/CN1CCSCC1 [Compound 231] | < 10
C[C@@H]1CN(C/C=C/C(=O)N2CCN(c3nc(OC[C@@]45CCCN4C[C@H](F)C5)nc4c(F)c(-c5cccc6cccc(F)c56)ncc34)C[C@@H]2CC#N)C[C@H](C)O1 [Compound 234] | 10 to 100
N#CC[C@H]1CN(c2nc(OC[C@@]34CCCN3C[C@H](F)C4)nc3c(F)c(-c4cccc5cccc(F)c45)ncc23)CCN1C(=O)/C=C/CN1C2COCC1C2 [Compound 248] | 10 to 100
Cc1cc(/C=C/C(=O)N2CCN(c3nc(OC[C@@]45CCCN4C[C@H](F)C5)nc4c(F)c(-c5cccc6c(C)c(F)ccc56)ncc34)C[C@@H]2CC#N)nc(C)n1 [Compound 250] | 100 to 500
Cc1c(F)ccc2c(-c3ncc4c(N5CCN(C(=O)/C=C/CN6[C@@H]7CC[C@H]6COC7)[C@@H](CC#N)C5)nc(OC[C@@]56CCCN5C[C@H](F)C6)nc4c3F)cccc12 [Compound 251] | 100 to 500
Cc1c(F)ccc2c(-c3ncc4c(N5CCN(C(=O)/C=C/CN6CCOCC6)[C@@H](CC#N)C5)nc(OC[C@@]56CCCN5C[C@H](F)C6)nc4c3F)cccc12 [Compound 252] | 100 to 500
Cc1c(F)ccc2c(-c3ncc4c(N5CCN(C(=O)/C=C/CN6CC7CC(C6)O7)[C@@H](CC#N)C5)nc(OC[C@@]56CCCN5C[C@H](F)C6)nc4c3F)cccc12 [Compound 253] | > 500
Cc1nccc(/C=C/C(=O)N2CCN(c3nc(OC[C@@]45CCCN4C[C@H](F)C5)nc4c(F)c(-c5cccc6c(C)c(F)ccc56)ncc34)C[C@@H]2CC#N)n1 [Compound 260] | > 500
N#CC[C@H]1CN(c2nc(OC[C@@]34CCCN3C[C@H](F)C4)nc3c(F)c(-c4cccc5cccc(Cl)c45)ncc23)CCN1C(=O)/C=C/CN1CCn2ccnc2C1 [Compound 262] | 10 to 100
N#CC[C@H]1CN(c2nc(OC[C@@]34CCCN3C[C@H](F)C4)nc3c(F)c(-c4cccc5ccc(F)c(F)c45)ncc23)CCN1C(=O)/C=C/CN1CCn2ccnc2C1 [Compound 263] | 10 to 100
N#CC[C@H]1CN(c2nc(OC[C@@]34CCCN3C[C@H](F)C4)nc3c(F)c(-c4cccc5ccc(F)c(F)c45)ncc23)CCN1C(=O)/C=C/CN1CCn2ccnc2C1 [Compound 264] | 100 to 500
N#CC[C@H]1CN(c2nc(OC[C@@]34CCCN3C[C@H](F)C4)nc3c(F)c(-c4cccc5cccc(Cl)c45)ncc23)CCN1C(=O)/C=C/CN1CCn2ncnc2C1 [Compound 265] | 100 to 500
N#CC[C@H]1CN(c2nc(OC[C@@]34CCCN3C[C@H](F)C4)nc3c(F)c(-c4cccc(F)c4C4CC4)ncc23)CCN1C(=O)/C=C/CN1C2CCC1COC2 [Compound 269] | < 10
N#CC[C@H]1CN(c2nc(OC[C@@]34CCCN3C[C@H](F)C4)nc3c(F)c(-c4ccccc4C4CC4)ncc23)CCN1C(=O)/C=C/CN1[C@@H]2CC[C@H]1COC2 [Compound 271] | 10 to 100
N#CC[C@H]1CN(c2nc(OC[C@@]34CCCN3C[C@H](F)C4)nc3c(F)c(-c4ccc(F)c(F)c4C4CC4)ncc23)CCN1C(=O)/C=C/CN1[C@@H]2CC[C@H]1COC2 [Compound 272] | 10 to 100
CCc1c(Cl)cccc1-c1ncc2c(N3CCN(C(=O)/C=C/CN4[C@@H]5CC[C@H]4COC5)[C@@H](CC#N)C3)nc(OC[C@@]34CCCN3C[C@H](F)C4)nc2c1F [Compound 281] | 10 to 100
N#CC[C@H]1CN(c2nc(OC[C@@]34CCCN3C[C@H](F)C4)nc3c(F)c(-c4cccc(Cl)c4C4CCC4)ncc23)CCN1C(=O)/C=C/CN1[C@@H]2CC[C@H]1COC2 [Compound 282] | 10 to 100

Further lines, results first:

IC50 [nM] | SMILES
100 to 500 | N#CC[C@H]1CN(c2nc(OC[C@@]34CCCN3C[C@H](F)C4)nc3c(F)c(-c4cccc5ccc(F)c(F)c45)ncc23)CCN1C(=O)/C=C/CN1CCn2ncnc2C1 [Compound 266]
10 to 100 | N#CC[C@H]1CN(c2nc(OC[C@@]34CCCN3C[C@H](F)C4)nc3c(F)c(-c4cccc5cccc(Cl)c45)ncc23)CCN1C(=O)/C=C/CN1CCn2ncnc2C1 [Compound 267]
10 to 100 | N#CC[C@H]1CN(c2nc(OC[C@@]34CCCN3C[C@H](F)C4)nc3c(F)c(-c4cccc5ccc(F)c(F)c45)ncc23)CCN1C(=O)/C=C/CN1CCn2nccc2C1 [Compound 268]
100 to 500 | N#CC[C@H]1CN(c2nc(OC[C@@]34CCCN3C[C@H](F)C4)nc3c(F)c(-c4cccc5cccc(Cl)c45)ncc23)CCN1C(=O)/C=C/CN1CCn2cnnc2C1 [Compound 270]
< 10 | N#CC[C@H]1CN(c2nc(OC[C@@]34CCCN3C[C@H](F)C4)nc3c(F)c(-c4cccc(Cl)c4C4CC4)ncc23)CCN1C(=O)/C=C/CN1CC2CCC1CO2 (some centres unmarked) [Compound 279]
10 to 100 | CN1CCN(C/C=C/C(=O)N2CCN(c3nc(OC[C@@]45CCCN4C[C@H](F)C5)nc4c(F)c(-c5cccc6cccc(Cl)c56)ncc34)C[C@@H]2CC#N)CC1 [Compound 280]
< 10 | N#CC[C@H]1CN(c2nc(OC[C@@]34CCCN3C[C@H](F)C4)nc3c(F)c(-c4cccc(Cl)c4C4CC4)ncc23)CCN1C(=O)/C=C/CN1CC[C@@H](F)C1 [Compound 284]
10 to 100 | CN1CCN(C/C=C/C(=O)N2CCN(c3nc(OC[C@@]45CCCN4C[C@H](F)C5)nc4c(F)c(-c5cccc(Cl)c5C5CC5)ncc34)C[C@@H]2CC#N)CC1 [Compound 286]
< 10 | CO[C@@H]1CCN(C/C=C/C(=O)N2CCN(c3nc(OC[C@@]45CCCN4C[C@H](F)C5)nc4c(F)c(-c5cccc(Cl)c5C5CC5)ncc34)C[C@@H]2CC#N)C1 [Compound 288]
> 500 | Cc1nccc(/C=C/C(=O)N2CCN(c3nc(OC[C@@]45CCCN4C[C@H](F)C5)nc4c(F)c(-c5ccccc5C(F)F)ncc34)C[C@@H]2CC#N)n1 [Compound 290]
10 to 100 | N#CC[C@H]1CN(c2nc(OC[C@@]34CCCN3C[C@H](F)C4)nc3c(F)c(-c4cccc5cccc(Cl)c45)ncc23)CCN1C(=O)/C=C/CN1C[C@H]2COC[C@H]21 [Compound 291]
